Measured values from article PMC7734625, “Stabilization Strategies for Linear Minigastrin Analogues: Further Improvements via the Inclusion of Proline into the Peptide Sequence” (Journal of Medicinal Chemistry, 2020).
Read-outs that look alike come from different tables or passages of the source. Non-standard residues stand in square brackets, D forms with d. Residues, ends and D or L forms follow the SMILES beside them. *: point of attachment. DOTA = O=C(O)CN1CCN(CC(=O)O)CCN(CC(=O)*)CCN(CC(=O)O)CC1; 1Nal = N[C@@H](Cc1cccc2ccccc12)C(=O)O; NMeNle = CCCC[C@H](NC)C(=O)O

Assays:
[1] = stability in rat kidney homogenate; type: in vitro ADME; settings: 120 min incubation, 37 °C
Description: (§1) In vitro stability studies characterizing the complex stability as well as the metabolic stability of the radiolabeled peptide analogues were carried out in PBS, fresh human serum, and rat liver and rat kidney homogenates. Organ homogenates were prepared from freshly dissected organs homogenized (IKA-Werke, Staufen, Germany) for 1 min at room temperature (RT) in a 20 mM 4-(2-hydroxyethyl)-1-piperazineethanesulfonic acid (HEPES) buffer at pH 7.3 (30% w/v). A fraction of 0.1 mL of radiolabeled peptide diluted in PBS/HEPES was added to 0.9 mL of medium reaching a final concentration of ∼500 pmol/mL and incubated at 37 °C for up to 120 min in rat organ homogenates (n = 2) and up to 24 h in human serum or PBS (n = 1). At each time point, 100 μL of sample was taken treated with 150 μL of ACN to precipitate proteins centrifuged (2000g, 2 min), diluted with water (1:1), and a fraction of 100 μL was injected to the analytical HPLC system. For serum and tissue homogenates, only the soluble phase extracted after centrifugation was analyzed, whereas the radioactivity lost in the pellet was not considered.

[2] = in vivo stability studies in BALB/c mice; settings: i.v.
Description: Metabolic studies evaluating the stability of the radioligands were carried out in 7- to 8-week-old female BALB/c mice. With the ^111In-labeled peptide derivatives, the studies were performed for the time point of 10 min p.i. (n = 2). With the ^177Lu-labeled peptide derivatives, additional studies were also carried out for the time point of 30 min and 60 min p.i. (n = 1 for each time point). To allow monitoring of the metabolites by analytical HPLC, the mice were injected with a higher amount of radioactivity (6–9 MBq indium-111, 30–45 MBq lutetium-177) corresponding to ∼1 nmol total peptide intravenously through a lateral tail vein. At different time points, the mice were euthanized by cervical dislocation and urine and a blood sample was collected. Liver and kidneys were excised and homogenized in 20 mM HEPES buffer pH 7.3. The amount of intact radiopeptide and the formation of metabolites was analyzed by analytical HPLC. Prior to injection into the HPLC system, all samples were treated as described for human serum and rat organ homogenate samples.

[3] = system: A431-CCK2R/A431-mock xenografts; test: biodistribution in A431-CCK2R/A431-mock xenografted BALB/c nude mice; type: in vivo
Description: Biodistribution studies evaluating the tumor uptake of the radiolabeled peptides were performed in 7- to 9-week-old female athymic BALB/c nude mice (Charles River, Sulzfeld, Germany). For the induction of tumor xenografts, 150 μL of DMEM containing 2 × 10^6 A431-CCK2R and A431-mock cells were injected subcutaneously in the right and left flank of each mouse, respectively. And 10–14 days after injection, tumors reached a medium weight of ∼0.25 g. The mice were divided into groups of four and injected intravenously via a lateral tail vein with 0.2 MBq of ^111In-labeled compound (0.02 nmol) and 0.7 and 1.5 MBq of the ^177Lu-labeled compound (0.02 and 0.15 nmol). At 4 and 12 h p.i., the mice were sacrificed and the tumors and other tissues (blood, lung, heart, muscle, spleen, intestine, liver, kidneys, stomach, and pancreas) were removed, weighed, and their radioactivity measured in the γ counter together with the rest of the body. Initial biodistribution studies were performed with the three ^177Lu-labeled CCK2R-targeting ligands at an injected peptide amount of 20 pmol for the time point of 4 h p.i. From these studies, two peptide analogues were selected to further characterize the biodistribution profile also at a later time point of 12 h p.i. and at a higher injected peptide amount of 150 pmol. Additional animal studies were performed for the ^111In-labeled conjugates. Percentage of injected activity per gram tissue (%IA/g), tumor-to-organ activity ratios, as well as whole body activity were calculated for each sample and statistical analysis using independent two-population t-test (significance level p < 0.05) was performed using Origin software. For the comparison of more than two groups, data were analyzed using one-way analysis of variance (ANOVA) Holm–Bonferroni-adjusted post hoc analysis (significance level p < 0.05) using Microsoft Excel 2010 software (Microsoft Excel 2010, Microsoft Corporation, WA).

[4] = log D, octanol/PBS distribution; type: physicochemical; settings: 111In-labeled peptide
[5] = type: in vitro ADME; settings: 120 min, pH 7.3
Description: as §1

[6] = molecular target: T1, human CCK2R (Homo sapiens, UniProt P32239); test: competitive binding against [125I][3-iodo-Tyr12,Leu15]gastrin-I on A431-CCK2R cells; settings: unlabeled peptide, three independent assays, read-out: apparent IC50
T1 construct: expressed in transfected cells; host or cells: A431 human epidermoid carcinoma cells, stably transfected (pCR3.1), provided by Dr. Luigi Aloj
T1 sequence (P32239 1-447): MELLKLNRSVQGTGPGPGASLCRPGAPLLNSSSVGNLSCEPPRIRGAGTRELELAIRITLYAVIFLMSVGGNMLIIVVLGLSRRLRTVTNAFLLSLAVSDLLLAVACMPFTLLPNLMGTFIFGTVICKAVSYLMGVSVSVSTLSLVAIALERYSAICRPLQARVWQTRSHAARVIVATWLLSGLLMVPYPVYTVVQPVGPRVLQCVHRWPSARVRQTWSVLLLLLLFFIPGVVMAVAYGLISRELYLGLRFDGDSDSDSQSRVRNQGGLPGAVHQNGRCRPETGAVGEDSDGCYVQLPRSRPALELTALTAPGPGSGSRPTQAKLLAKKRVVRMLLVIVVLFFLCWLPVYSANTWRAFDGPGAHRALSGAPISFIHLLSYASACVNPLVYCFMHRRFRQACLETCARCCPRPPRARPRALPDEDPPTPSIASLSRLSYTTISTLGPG
Description: Binding assays were carried in 96-well filter plates (MultiScreenHTS-FB, Merck Group, Darmstadt, Germany) pretreated with 10 mM TRIS/139 mM NaCl buffer, pH 7.4 (TRIS-buffer) (2 × 250 μL) before 400 000 A431-CCK2R cells per well were added in 35 mM HEPES buffer, pH 7.4, containing 10 mM MgCl2, 14 μM bacitracin, and 0.5% bovine serum albumin (BSA).[46] Competition assays were performed three times in triplicate using increasing concentrations of competitor (0.003–1000 nM) and a constant amount of radioligand (∼40 000 cpm). After 1 h of incubation at room temperature (RT), the medium was removed and the filters were rapidly rinsed with ice-cold TRIS-buffer (2 × 200 μL), removed and counted in a γ-counter. Half-maximal inhibitory concentration (IC50) values were calculated following nonlinear regression with Origin software (MicroCal Origin 6.1, Northampton, MA). Even though incubation was performed in a hypoosmotic solution disturbing the integrity of the cell membrane, we cannot totally exclude that a limited extent of internalization affecting the binding equilibrium occurred. Therefore, the binding affinity measurements obtained from these studies are presented as “apparent IC50” rather than IC50.

[7] = molecular target: T1, human CCK2R; test: calcium mobilization assay on A431-CCK2R cells; type: cell-based; settings: mean ± SEM
Description: (§2) For calcium mobilization assays evaluating receptor activation, A431-CCK2R cells stably transfected with human CCK2R and AR42J cells expressing rat CCK2R were seeded in flat clear bottom black 96-well plates (Corning, Bagneaux-sur-Loing, France), previously coated with poly-D-ornithine (100 μg/mL, 1 h, 37 °C), at densities of 60 000 and 120 000 cells/well, respectively. After 24 h in culture in a 5% CO2 atmosphere, the cells were rinsed twice with modified HBSS buffer (20 mM HEPES, 0.5 mM MgCl2, 2.6 mM CaCl2, 7.7 mM Na2CO3, 1.4 mM MgSO4, 5.3 mM KCl, 138 mM NaCl, 0.1% BSA, 5.5 mM glucose, 2.5 mM probenecid, pH 7.4) (Sigma-Aldrich, Saint-Quentin-Fallavier, France) and loaded (40 min at 37 °C) with the calcium-sensitive dye Fluo-4 AM (ThermoFisher Scientific, Montigny-Le-Bretonneux, France) containing pluronic acid (20% in dimethyl sulfoxide (DMSO)). […] Briefly, after 18 s recording in basal conditions, 50 μL of graded concentrations of the investigated peptides was added to the incubation medium with a built-in eight-channel pipettor to assess activity. […] EC50 values were calculated with the Prism 4.0 software using a logistic equation. Results were expressed as mean ± standard error of the mean (SEM) for at least three independent experiments in triplicate.

[8] = molecular target: T2, rat CCK2R (Rattus norvegicus, UniProt P30553); test: calcium mobilization assay on AR42J cells; type: cell-based; settings: mean ± SEM
T2 construct: physiologically expressing the rat CCK2R; host or cells: AR42J rat pancreatic tumor cells
T2 sequence (P30553 1-452): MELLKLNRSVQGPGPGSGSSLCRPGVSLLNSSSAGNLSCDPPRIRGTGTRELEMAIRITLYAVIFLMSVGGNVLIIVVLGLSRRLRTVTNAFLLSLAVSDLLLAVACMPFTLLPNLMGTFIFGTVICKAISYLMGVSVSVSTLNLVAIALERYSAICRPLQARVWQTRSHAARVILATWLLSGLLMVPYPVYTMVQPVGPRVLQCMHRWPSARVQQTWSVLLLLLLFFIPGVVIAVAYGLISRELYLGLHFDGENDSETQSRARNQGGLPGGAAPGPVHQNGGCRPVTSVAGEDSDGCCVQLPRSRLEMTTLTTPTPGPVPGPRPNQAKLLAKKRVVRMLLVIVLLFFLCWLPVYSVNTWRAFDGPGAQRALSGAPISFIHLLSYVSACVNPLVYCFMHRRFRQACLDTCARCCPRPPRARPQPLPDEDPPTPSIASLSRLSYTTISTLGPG
Description: as §2

[9] = molecular target: T1, human CCK2R; settings: A431-CCK2R cells, previous assays; cited from earlier work

Row | Compound | intact radiopeptide in rat kidney homogenate [1] | logD [4] | intact radiopeptide in rat liver homogenate [5] | IC50 [6] | EC50 [7] | EC50 [8] | also measured
1 | CCCC[C@@H](C(=O)N[C@@H](CC(=O)O)C(=O)N[C@@H](Cc1cccc2ccccc12)C(N)=O)N(C)C(=O)[C@H](Cc1c[nH]c2ccccc12)NC(=O)CNC(=O)[C@H](Cc1ccc(O)cc1)NC(=O)[C@@H]1CCCN1C(=O)[C@@H](CCC(=O)O)NC(=O)CN1CCN(CC(=O)O)CCN(CC(=O)O)CCN(CC(=O)O)CC1 [[^111In]In-1] [metal not drawn] ({DOTA}-[dE]PYGW[NMeNle]D[1Nal]-NH2) | ~5% |  |  |  |  |  | intact radiopeptide in blood ([2]; 10 min p.i.): 80.0 ± 5.2%; intact radiopeptide in kidneys ([2]; 10 min p.i.): 23.4 ± 4.2%; intact radiopeptide in liver ([2]; 10 min p.i.): 76.0 ± 0.4%; intact radiopeptide in urine ([2]; 10 min p.i.): 21.8 ± 8.1%
2 | CCCC[C@@H](C(=O)N[C@@H](CC(=O)O)C(=O)N[C@@H](Cc1cccc2ccccc12)C(N)=O)N(C)C(=O)[C@H](Cc1c[nH]c2ccccc12)NC(=O)CNC(=O)[C@H](Cc1ccc(O)cc1)NC(=O)[C@@H]1CCCN1C(=O)[C@@H](CCC(=O)O)NC(=O)CN1CCN(CC(=O)O)CCN(CC(=O)O)CCN(CC(=O)O)CC1 [[^177Lu]Lu-1] [metal not drawn] ({DOTA}-[dE]PYGW[NMeNle]D[1Nal]-NH2) | ~5% |  |  |  |  |  | intact radiopeptide in blood ([2]; 60 min p.i., n = 1): 56.6%; intact radiopeptide in kidneys ([2]; 60 min p.i., n = 1): 8.1%; intact radiopeptide in liver ([2]; 60 min p.i., n = 1): 30.8%; intact radiopeptide in urine ([2]; 60 min p.i., n = 1): 23.0%; tumor uptake in A431-CCK2R xenografts ([3]; 20 pmol, 4 h p.i.): 35 % IA/g; uptake in A431-mock xenografts ([3]; 150 pmol, 4 h p.i.): 0.32 ± 0.14 % IA/g; uptake in blood ([3]; 150 pmol, 4 h p.i.): 0.07 ± 0.04 % IA/g; uptake in heart ([3]; 150 pmol, 4 h p.i.): 0.09 ± 0.03 % IA/g; uptake in spleen ([3]; 150 pmol, 4 h p.i.): 0.18 ± 0.05 % IA/g; tumor retention ([3]; A431-CCK2R xenografts, 12 h p.i. relative to 4 h p.i., 20 pmol): > 60%; reduction of tumor uptake in A431-CCK2R xenografts ([3]; injected peptide amount increased to 150 pmol vs 20 pmol, 4 h p.i.): about 50%
3 | CCCC[C@@H](C(=O)N[C@@H](CC(=O)O)C(=O)N[C@@H](Cc1cccc2ccccc12)C(N)=O)N(C)C(=O)[C@H](Cc1c[nH]c2ccccc12)NC(=O)CNC(=O)[C@H](Cc1ccc(O)cc1)NC(=O)[C@@H]1CCCN1C(=O)[C@@H](CCC(=O)O)NC(=O)CN1CCN(CC(=O)O)CCN(CC(=O)O)CCN(CC(=O)O)CC1 [compound 1] ({DOTA}-[dE]PYGW[NMeNle]D[1Nal]-NH2) |  | -2.03 ± 0.1 | 39-53% | 1.4 ± 0.6 nM | 12.3 ± 2.4 nM | 1.74 ± 0.81 nM | 
4 | CCCC[C@@H](C(=O)N[C@@H](CC(=O)O)C(=O)N[C@@H](Cc1cccc2ccccc12)C(N)=O)N(C)C(=O)[C@H](Cc1c[nH]c2ccccc12)NC(=O)CNC(=O)[C@@H]1CCCN1C(=O)[C@H](Cc1ccc(O)cc1)NC(=O)[C@@H](CCC(=O)O)NC(=O)CN1CCN(CC(=O)O)CCN(CC(=O)O)CCN(CC(=O)O)CC1 [compound 2] ({DOTA}-[dE]YPGW[NMeNle]D[1Nal]-NH2) |  | -1.75 ± 0.1 | 50-61% | 0.6 ± 0.3 nM | 14.2 ± 2.07 nM | 1.91 ± 0.49 nM | 
5 | CCCC[C@@H](C(=O)N[C@@H](CC(=O)O)C(=O)N[C@@H](Cc1cccc2ccccc12)C(N)=O)N(C)C(=O)[C@H](Cc1c[nH]c2ccccc12)NC(=O)[C@@H]1CCCN1C(=O)[C@H](Cc1ccc(O)cc1)NC(=O)[C@H](C)NC(=O)[C@@H](CCC(=O)O)NC(=O)CN1CCN(CC(=O)O)CCN(CC(=O)O)CCN(CC(=O)O)CC1 [compound 3] ({DOTA}-[dE]AYPW[NMeNle]D[1Nal]-NH2) |  | -2.05 ± 0.08 |  | 1.3 ± 0.8 nM | 12.4 ± 3.83 nM | 1.27 ± 0.72 nM | 
6 | DOTA-MG11: DOTA conjugate of the truncated MG analogue [DGlu^1,DesGlu^2–6]MG (MG11) (EAYGWMDF; Synthetic [DGlu1,desGlu2-6]minigastrin: residue 1 is D-Glu, N-terminal DOTA, C-terminal amide (Phe-NH2), Tyr not sulfated) |  |  |  |  |  |  | IC50 [9]: 0.9 ± 0.3 nM
